Assay results from the supplement of paper PMC10307832.

What was measured:
Experiment in all cases: relative viability (nuclei count vs DMSO), 5 days (fraction); higher = more cells survive
FG-4592 + Tozasertib = compound: Cc1nc(C(=O)NCC(=O)O)c(O)c2ccc(Oc3ccccc3)cc12 [FG-4592] + Cc1cc(Nc2cc(N3CCN(C)CC3)nc(Sc3ccc(NC(=O)C4CC4)cc3)n2)n[nH]1 [Tozasertib] (partner 0.1 µM)
Method in brief: (§1)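 The day after seeding in 1536-well plates, lung cancer cell lines were treated by pin tool with a single drug, or with a fixed anchor-drug dose together with five library-drug doses (not always all listed) in √10 steps. After 5 days, a combined fix-and-stain solution (final 0.05% Triton X-100, 1% formaldehyde, 1 ug/ml Hoechst) was added. Nuclei counted on 4× images gave relative viability as treated counts over vehicle counts, reported as the median of duplicate plates.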

IU1-47 + Decitabine = compound: CC1=CC(=C(N1C2=CC=C(C=C2)Cl)C)C(=O)CN3CCCCC3 [IU1-47] + Nc1ncn([C@H]2C[C@H](O)[C@@H](CO)O2)c(=O)n1 [Decitabine] (partner 2 µM)
Method in brief: as §1

FG-4592 + Vorinostat = compound: Cc1nc(C(=O)NCC(=O)O)c(O)c2ccc(Oc3ccccc3)cc12 [FG-4592] + O=C(CCCCCCC(=O)Nc1ccccc1)NO [Vorinostat] (partner 1 µM)
Method in brief: as §1

IU1-47 + Crizotinib = compound: CC1=CC(=C(N1C2=CC=C(C=C2)Cl)C)C(=O)CN3CCCCC3 [IU1-47] + C[C@@H](Oc1cc(-c2cnn(C3CCNCC3)c2)cnc1N)c1c(Cl)ccc(F)c1Cl [Crizotinib] (partner 1 µM)
Method in brief: as §1

| Cell Line | relative viability (FG-4592 + Tozasertib; first compound 0.08 µM) | relative viability (FG-4592 + Tozasertib; first compound 0.253 µM) | relative viability (FG-4592 + Tozasertib; first compound 2.53 µM) | relative viability (FG-4592 + Tozasertib; first compound 8 µM) | relative viability (IU1-47 + Decitabine; first compound 0.08 µM) | relative viability (IU1-47 + Decitabine; first compound 0.253 µM) | relative viability (IU1-47 + Decitabine; first compound 0.8 µM) | relative viability (IU1-47 + Decitabine; first compound 2.53 µM) | relative viability (IU1-47 + Decitabine; first compound 8 µM) | relative viability (FG-4592 + Vorinostat; first compound 0.08 µM) | relative viability (FG-4592 + Vorinostat; first compound 0.253 µM) | relative viability (FG-4592 + Vorinostat; first compound 0.8 µM) | relative viability (FG-4592 + Vorinostat; first compound 2.53 µM) | relative viability (FG-4592 + Vorinostat; first compound 8 µM) | relative viability (IU1-47 + Crizotinib; first compound 0.08 µM) | relative viability (IU1-47 + Crizotinib; first compound 0.253 µM) | relative viability (IU1-47 + Crizotinib; first compound 0.8 µM) | relative viability (IU1-47 + Crizotinib; first compound 2.53 µM) | relative viability (IU1-47 + Crizotinib; first compound 8 µM) | relative viability (FG-4592 + Tozasertib; first compound 0.8 µM) |
| --- | --- | --- | --- | --- | --- | --- | --- | --- | --- | --- | --- | --- | --- | --- | --- | --- | --- | --- | --- | --- |
| HCC-44 | 1.08 | 0.84 | 0.783 | 0.852 | 0.982 | 0.938 | 0.966 | 0.917 | 1.03 | 1.03 | 1.05 | 1.2 | 1.16 | 1.11 | 0.801 | 0.784 | 0.809 | 0.77 | 0.799 |  |
| HCC-827 | 0.385 | 0.372 | 0.457 | 0.406 | 0.336 | 0.323 | 0.351 | 0.31 | 0.31 | 0.85 | 0.823 | 0.927 | 0.842 | 0.81 | 0.89 | 0.955 | 1.01 | 0.961 | 0.904 | 0.369 |
| NCI-H1623 | 0.434 | 0.422 | 0.45 | 0.436 |  |  |  |  |  |  |  |  |  |  |  |  |  |  |  | 0.404 |
| NCI-H2347 | 0.415 |  | 0.315 | 0.52 | 0.662 | 0.663 | 0.609 | 0.615 | 0.581 | 0.519 | 0.421 | 0.52 | 0.41 | 0.585 | 0.575 | 0.746 | 0.727 | 0.674 | 0.762 | 0.621 |
| PC-14 | 0.674 | 0.55 | 0.596 | 0.682 | 0.177 | 0.205 | 0.235 | 0.261 | 0.209 | 0.785 | 0.738 | 0.814 | 0.694 | 0.615 | 0.921 | 0.888 | 0.845 | 0.999 | 0.926 | 0.651 |
| NCI-H1651 | 0.773 | 0.653 | 0.629 | 0.569 | 0.627 | 0.672 | 0.522 | 0.357 | 0.579 | 0.597 | 0.596 | 0.546 | 0.469 | 0.538 | 0.887 | 0.873 | 0.889 | 0.804 | 0.863 | 0.742 |
| HARA | 0.12 | 0.138 | 0.115 | 0.104 | 0.494 |  | 0.524 | 0.489 | 0.486 | 0.554 | 0.556 | 0.507 | 0.662 | 0.607 | 0.945 | 1.17 | 1.29 | 1.12 | 0.719 | 0.0931 |
| NCI-H1650 | 0.409 | 0.277 | 0.456 | 0.406 | 0.474 | 0.593 | 0.391 | 0.366 | 0.445 | 0.762 | 0.53 | 0.502 | 0.55 | 0.465 | 0.978 | 0.969 | 0.802 | 1.16 | 0.857 | 0.427 |
| NCI-H1395 | 0.775 | 0.728 | 0.75 | 0.791 | 0.687 | 0.802 | 0.699 | 0.704 | 0.713 | 0.729 | 0.771 | 0.493 | 0.675 | 0.623 |  |  |  |  |  | 0.702 |
| LU99A | 0.289 | 0.293 | 0.334 | 0.297 | 0.968 | 0.824 | 0.852 | 0.883 | 0.768 | 0.464 | 0.523 |  | 0.506 | 0.423 | 0.503 | 0.538 | 0.538 | 0.739 | 0.617 | 0.243 |
| NCI-H1355 | 0.525 | 0.551 | 0.573 | 0.521 | 0.364 | 0.342 | 0.348 |  | 0.349 | 0.553 | 0.632 |  | 0.596 | 0.644 | 1.17 | 1.09 | 1.14 | 1 | 1.14 | 0.55 |
| HCC-78 | 0.402 | 0.481 | 0.486 | 0.414 | 0.643 | 0.682 | 0.71 | 0.668 | 0.723 | 0.488 |  | 0.434 | 0.376 | 0.523 | 0.334 | 0.358 | 0.336 | 0.324 | 0.386 | 0.491 |
| NCI-H1563 |  |  |  |  |  |  |  |  |  |  |  |  |  |  | 0.877 | 0.791 | 0.882 | 0.86 | 0.802 |  |
| HCC-15 | 0.333 | 0.42 | 0.391 | 0.444 | 0.619 | 0.586 | 0.63 | 0.552 | 0.461 | 0.975 | 0.796 | 0.776 | 0.82 | 0.829 | 0.949 | 0.879 | 0.908 | 0.825 | 0.704 | 0.395 |
| EKVX | 0.397 | 0.403 | 0.412 | 0.387 | 0.376 | 0.339 | 0.364 |  | 0.352 | 0.869 | 0.619 | 0.64 | 0.706 | 0.784 | 0.981 | 1.14 | 1.05 | 0.892 | 0.793 | 0.47 |
| NCI-H2087 | 0.234 | 0.205 | 0.175 | 0.269 | 0.317 | 0.256 | 0.311 | 0.228 | 0.23 | 0.695 | 0.453 | 0.565 |  | 0.869 | 1.01 | 0.83 | 0.947 | 1.04 | 0.806 | 0.279 |
| LK-2 | 0.155 | 0.17 | 0.175 | 0.186 | 0.354 | 0.35 | 0.34 | 0.372 | 0.179 | 0.299 | 0.245 | 0.228 | 0.208 | 0.214 | 0.204 | 0.223 | 0.223 | 0.213 | 0.255 |  |
| NCI-H1437 | 0.397 | 0.384 | 0.375 | 0.33 | 0.573 | 0.513 | 0.658 | 0.63 | 0.547 | 0.751 | 0.786 | 0.912 | 0.894 | 0.722 | 0.909 | 0.952 | 0.81 | 0.926 | 0.795 | 0.458 |
